Measurements: ChEMBL document CHEMBL1131097, “2-Deoxy derivative is a partial agonist of the intracellular messenger inositol 3,4,5,6-tetrakisphosphate in the epithelial cell line T84” (J Med Chem, 1998)

Columns and labels:
T84 [1] = test: Inhibition of calcium-mediated chloride secretion in the intestinal epithelial cell line T84 by measuring short circuit current at 200 uM concentration; Ineffective; format: functional, cell-based; settings: Homo sapiens
T84 [2] = test: Inhibition of calcium-mediated chloride secretion in the intestinal epithelial cell line T84 by measuring short circuit current at 400 uM concentration; Maximum; format: functional, cell-based; settings: Homo sapiens

CCCCO[C@@H]1C[C@H](OP(=O)(OCOC(C)=O)OCOC(C)=O)[C@@H](OP(=O)(OCOC(C)=O)OCOC(C)=O)[C@H](OP(=O)(OCOC(C)=O)OCOC(C)=O)[C@H]1OP(=O)(OCOC(C)=O)OCOC(C)=O (racemic)
inhibition (T84 [1]): Ineffective
inhibition (T84 [2]): Ineffective
